Values of other authors in patent US4603142A, “Cholesterol lowering method of use” (Wisconsin Alumni Research Foundation, priority 1984, dated 1986).

Details: compared with tocotrienols; cited from earlier work

Vitamin E
Lowering of cholesterol: does not cause a similar lowering of cholesterol
